Data on 81 compounds can be found in US9732089B2, “Substituted pyrazolo[1,5-a]pyrimidines and their use in the treatment of medical disorders” (Lysosomal Therapeutics Inc., priority 2014, dated 2017).

A short description of this data set: Compound solubility in water. The class given is physicochemical.

Converted amounts (≈) assume the structure as drawn. Bounds are passed on as bounds.

With `C#Cc1ccc(NC(=O)c2cnn3c(C)cc(C)nc23)nc1` [III-1], the solubility was less than 1.5 µg/mL. `C#Cc1ccc(NC(=O)c2cnn3c(C)cc(C)nc23)cn1` [III-2]: the solubility is less than 1.5 µg/mL. For `Cc1cc(C)n2ncc(C(=O)Nc3ccc(-c4ccccc4)cc3)c2n1` [III-3] the value was less than 1.5 µg/mL; for `COCC#Cc1ccc(NC(=O)c2cnn3c(C)cc(C)nc23)cc1` [III-4], less than 1.5 µg/mL.

As for `Cc1cc(C)n2ncc(C(=O)Nc3ccc(Oc4ccccc4)cc3)c2n1` [III-5], the solubility was less than 1.5 µg/mL. The same measure for `Cc1cc(C)n2ncc(C(=O)Nc3ccc(-n4ccnc4)cc3)c2n1` [III-6]: less than 1.5 µg/mL. Take `Cc1cc(C)n2ncc(C(=O)Nc3ccc(-c4nccs4)cc3)c2n1` [III-7]: the solubility is less than 1.5 µg/mL. Regarding `C#Cc1ccc(NC(=O)c2cnn3c(C)cc(C)nc23)c(OC)c1` [III-8], the solubility is less than 1.5 µg/mL. The same measure for `Cc1cc(C)n2ncc(C(=O)Nc3ccc(-c4ccon4)cc3)c2n1` [III-9]: less than 1.5 µg/mL; for `Cc1cc(C)n2ncc(C(=O)Nc3ccc(-c4cocn4)cc3)c2n1` [III-10]: less than 1.5 µg/mL. `Cc1cc(C)n2ncc(C(=O)Nc3ccc(-c4ncco4)cc3)c2n1` [III-11] displayed a solubility of less than 1.5 µg/mL. Turning to `Cc1cc(C)n2ncc(C(=O)Nc3cc(-c4ccccc4)on3)c2n1` [III-12], the solubility is less than 1.5 µg/mL. The compound `C#CC1CCC(NC(=O)c2cnn3c(C)cc(C)nc23)CC1` (stereo not drawn) [III-13] had a solubility of 26 µg/mL (≈ 87.7 µM). For `C#C[C@H]1CC[C@H](NC(=O)c2cnn3c(C)cc(C)nc23)CC1` [III-14] the value was 17.6 µg/mL (≈ 59.4 µM); for `C#C[C@H]1CC[C@@H](NC(=O)c2cnn3c(C)cc(C)nc23)CC1` [III-15], 8 µg/mL (≈ 27 µM). The same measure for `Cc1cc(C)n2ncc(C(=O)Nc3ccc(-c4cnsc4)cc3)c2n1` [III-16]: less than 1.5 µg/mL; for `Cc1cc(C)n2ncc(C(=O)Nc3ccc(-c4cnoc4)cc3)c2n1` [III-17]: less than 1.5 µg/mL. In the case of `Cc1cc(C)n2ncc(C(=O)Nc3cc(C4(C(F)(F)F)CC4)on3)c2n1` [III-18], the concentration in solution (solubility) came to 2.6 µg/mL (≈ 7.12 µM).

`Cc1cc(C)n2ncc(C(=O)Nc3ccc(-c4cocn4)nc3)c2n1` [III-19] had a solubility of 3 µg/mL (≈ 8.97 µM).

The compound `Cc1cc(C)n2ncc(C(=O)Nc3ccc(-c4cccs4)nc3)c2n1` [III-20] registered a solubility of less than 1.5 µg/mL. The compound `Cc1cc(C)n2ncc(C(=O)Nc3ccc(-c4ccncc4)nc3)c2n1` [III-21] returned a solubility of less than 1.5 µg/mL. The same measure for `Cc1cc(C)n2ncc(C(=O)Nc3ccc(-c4ccco4)nc3)c2n1` [III-22]: less than 1.5 µg/mL; for `Cc1cc(C)n2ncc(C(=O)Nc3ccc(-c4cnn(C)c4)nc3)c2n1` [III-23]: less than 1.5 µg/mL. For `Cc1cc(C)n2ncc(CNc3ccc(-c4cocn4)nc3)c2n1` [III-24] the value was greater than 64 µg/mL; for `Cc1ccn2ncc(CNc3ccc(-c4cocn4)cc3)c2n1` [III-25], 54 µg/mL (≈ 177 µM). For `Cc1ccn2ncc(CNc3ccc(-c4ncco4)cc3)c2n1` [III-26] the value was 39 µg/mL (≈ 128 µM). `Cc1cc(C)n2ncc(C(=O)Nc3ccc(-c4cscn4)cc3)c2n1` [III-27] came in with a solubility of less than 1.5 µg/mL. In turn, `Cc1cc(C)n2ncc(C(=O)Nc3nc4ccccc4[nH]3)c2n1` [III-28] displayed a solubility of less than 1.5 µg/mL. The same measure for `COCC#Cc1ccc(NCc2cnn3c(C)cc(C)nc23)cc1` [III-29]: 5.4 µg/mL (≈ 16.9 µM); for `Cc1cc(C)n2ncc(C(=O)Nc3ccc(-c4ncc[nH]4)cc3)c2n1` [III-30]: less than 1.5 µg/mL; for `Cc1cc(C)n2ncc(C(=O)Nc3ccc(-c4cc[nH]n4)cc3)c2n1` [III-31]: 33 µg/mL (≈ 99.3 µM). The same measure for `CCCCCOc1ccc(NC(=O)c2cnn3c(C)cc(C)nc23)cc1` [III-32]: less than 1.5 µg/mL. The same measure for `C#CCOc1ccc(NC(=O)c2cnn3c(C)cc(C)nc23)cc1` [III-33]: less than 1.5 µg/mL. `Cc1cc(C)n2ncc(C(=O)Nc3ccc(CCCC(=O)O)cc3)c2n1` [III-34] yielded a solubility of less than 1.5 µg/mL.

For the compound `Cc1cc(C)n2ncc(C(=O)Nc3ccc(C(C)O)cc3)c2n1` (stereo not drawn) [III-35], the solubility worked out at 10 µg/mL (≈ 32.2 µM).

The compound `Cc1cc(C)n2ncc(C(=O)Nc3ccc(CCC(=O)O)cc3)c2n1` [III-36] showed a solubility of 59.6 µg/mL (≈ 176 µM). The same measure for `Cc1cc(C)n2ncc(CNc3ccc(-c4cocn4)cc3)c2n1` [III-37]: 26.1 µg/mL (≈ 81.7 µM); for `Cc1cc(C)n2ncc(C(=O)Nc3ccc(N=[N+]=[N-])cc3)c2n1` [III-38]: less than 1.5 µg/mL; for `Cc1cc(C)n2ncc(C(=O)Nc3ccc(-c4cccs4)cc3)c2n1` [III-39]: less than 1.5 µg/mL. For `Cc1cc(C)n2ncc(C(=O)Nc3ccc4[nH]c(C)cc4c3)c2n1` [III-40] the value was 0.3 µg/mL (≈ 0.939 µM); for `Cc1cc(C)n2ncc(C(=O)Nc3ccc4[nH]ncc4c3)c2n1` [III-41], 0.5 µg/mL (≈ 1.63 µM).

Turning to `Cc1cc(C)n2ncc(C(=O)Nc3ccc4cn[nH]c4c3)c2n1` [III-42], the concentration in solution (solubility) came to 0.4 µg/mL (≈ 1.31 µM).

`Cc1cc(C)n2ncc(C(=O)Nc3ccc4nc(C)oc4c3)c2n1` [III-44] had a solubility of 0.3 µg/mL (≈ 0.934 µM). The same measure for `Cc1cc(C)n2ncc(C(=O)Nc3ccc4nc(C)[nH]c4c3)c2n1` [III-45]: 1.2 µg/mL (≈ 3.75 µM). For `Cc1cc(C)n2ncc(C(=O)Nc3ccc4c(c3)CCNC4)c2n1` [III-46] the value was 33.4 µg/mL (≈ 104 µM); for `Cc1cc(C)n2ncc(C(=O)Nc3ccc4oncc4c3)c2n1` [III-47], 0.9 µg/mL (≈ 2.93 µM); for `Cc1cc(C)n2ncc(C(=O)Nc3ccc4oc(-c5ccncc5)nc4c3)c2n1` [III-48], 0.3 µg/mL (≈ 0.78 µM). The same measure for `Cc1cc(C)n2ncc(C(=O)Nc3ccc4[nH]c(-c5ccco5)nc4c3)c2n1` [III-49]: 0.4 µg/mL (≈ 1.07 µM); for `Cc1cc(C)n2ncc(C(=O)Nc3ccc4nc(C)sc4c3)c2n1` [III-50]: 2.3 µg/mL (≈ 6.82 µM); for `Cc1cc(C)n2ncc(C(=O)Nc3ccc(Cl)c(COc4cccnc4)c3)c2n1` [III-51]: 0.06 µg/mL (≈ 0.147 µM). In turn, `Cc1cc(C)n2ncc(C(=O)Nc3ccc(C)c(-c4ncco4)c3)c2n1` [III-52] registered a solubility of 0.05 µg/mL (≈ 0.144 µM). For `Cc1cc(C)n2ncc(C(=O)Nc3ccc(Cl)c(-c4cnco4)c3)c2n1` [III-53] the value was less than 0.05 µg/mL; for `Cc1cc(C)n2ncc(C(=O)Nc3ccc(-c4cnn(C)c4)cc3)c2n1` [III-54], 2.1 µg/mL (≈ 6.06 µM); for `Cc1cc(C)n2ncc(C(=O)Nc3ccc(-c4ccco4)cc3)c2n1` [III-55], less than 1.5 µg/mL. The same measure for `Cc1cc(C)n2ncc(C(=O)Nc3ccc(-c4ccncc4)cc3)c2n1` [III-56]: less than 1.5 µg/mL. The same measure for `Cc1cc(C)n2ncc(C(=O)NC3CCCc4ccccc43)c2n1` (stereo not drawn) [III-58]: 2.6 µg/mL (≈ 8.11 µM); for `CCCCCO[C@H]1CC[C@H](NC(=O)c2cnn3c(C)cc(C)nc23)CC1` [III-59]: 7.1 µg/mL (≈ 19.8 µM); for `Cc1cc(C)n2ncc(C(=O)N[C@@H](C)c3ccccc3F)c2n1` [III-60]: 7.2 µg/mL (≈ 23.1 µM).

Consider `COc1ccccc1[C@H](C)NC(=O)c1cnn2c(C)cc(C)nc12` [III-61], for which the solubility came out at 1.4 µg/mL (≈ 4.32 µM). The same measure for `COc1ccccc1[C@@H](C)NC(=O)c1cnn2c(C)cc(C)nc12` [III-62]: 2.5 µg/mL (≈ 7.71 µM); for `Cc1cc(C)n2ncc(C(=O)N[C@@H](C)c3cccc(Cl)c3)c2n1` [III-63]: 11.9 µg/mL (≈ 36.2 µM); for `Cc1cc(C)n2ncc(C(=O)N[C@H](C)c3ccc(Cl)cc3)c2n1` [III-64]: 0.7 µg/mL (≈ 2.13 µM).

The compound `Cc1cc(C)n2ncc(C(=O)N[C@H](C)c3ccc(F)cc3)c2n1` [III-65] displayed a solubility of 27.6 µg/mL (≈ 88.4 µM).

`Cc1cc(C)n2ncc(C(=O)NC(C)C3CCC(F)(F)CC3)c2n1` (stereo not drawn) [III-66] showed a solubility of 20.6 µg/mL (≈ 61.2 µM). For `Cc1cc(C)n2ncc(C(=O)NC(C)(C)c3ccc(Cl)cc3)c2n1` [III-67] the value was 2.2 µg/mL (≈ 6.42 µM); for `Cc1cc(Cl)n2ncc(C(=O)NC(C)(C)c3ccc(Cl)cc3)c2n1` [III-68], 2.1 µg/mL (≈ 5.78 µM).

For `Cc1cc(Cl)nc2c(C(=O)NC(C)(C)c3ccc(Cl)cc3)cnn12` [III-69], the concentration in solution (solubility) was 5.1 µg/mL (≈ 14 µM).

With `Cc1cc(C)n2ncc(C(=O)NC(C)(C)c3ccc(F)cc3F)c2n1` [III-70], the concentration in solution (solubility) came to 2 µg/mL (≈ 5.81 µM). The compound `CO[C@H]1CC[C@H](C(C)(C)NC(=O)c2cnn3c(C)cc(C)nc23)CC1` [III-71] registered a solubility of 21.4 µg/mL (≈ 62.1 µM). For `CO[C@H]1CC[C@@H](C(C)(C)NC(=O)c2cnn3c(C)cc(C)nc23)CC1` [III-72] the value was 15.1 µg/mL (≈ 43.8 µM); for `Cc1cc(C)n2ncc(C(=O)Nc3ccc4c(c3)C(C3=NCCN3)CCC4)c2n1` (stereo not drawn) [III-73], 34 µg/mL (≈ 87.5 µM); for `C#Cc1ccc(NCc2cnn3c(C)cc(C)cc23)cc1` [III-74], 0.2 µg/mL (≈ 0.726 µM). The same measure for `Cc1cc(C)n2ncc(C(=O)Nc3ccc(Cl)c(C(C)Oc4cccnc4)c3)c2n1` (stereo not drawn) [III-75]: 0.1 µg/mL (≈ 0.237 µM); for `C#Cc1ccc(NC(=O)c2cnn3c(C)cc(NC)nc23)cc1` [III-77]: 4.2 µg/mL (≈ 13.8 µM). The same measure for `C#Cc1ccc(NC(=O)c2cnn3c(NC)cc(C)nc23)cc1` [III-78]: less than 1.5 µg/mL; for `Cc1cc(C)n2ncc(C(=O)NC3CCc4ccccc43)c2n1` (stereo not drawn) [III-79]: 0.8 µg/mL (≈ 2.61 µM). The compound `C#Cc1ccc(NC(=O)c2cnn3c(C)cc(C)nc23)cc1` [IV-1] showed a solubility of less than 1.5 µg/mL. The same measure for `Cc1cc(C)n2ncc(C(=O)Nc3ccc(C#CCN(C)C)cc3)c2n1` [IV-2]: 5.1 µg/mL (≈ 14.7 µM); for `Cc1cc(C)n2ncc(C(=O)Nc3ccc(N4CCCCC4)cc3)c2n1` [IV-3]: less than 1.5 µg/mL; for `Cc1cc(C)n2ncc(C(=O)Nc3ccc4c(c3)OCO4)c2n1` [IV-4]: 0.6 µg/mL (≈ 1.93 µM).

Compound `Cc1cc(C)n2ncc(C(=O)Nc3ccc4c(c3)CCC4)c2n1` [IV-5] yielded a solubility of 0.5 µg/mL (≈ 1.63 µM).
